Entries after “also recorded” stand apart in the source; their conditions may differ.
Legend:
E-cadherin = details: literature reports; cited from earlier work
T84 cell monolayers [1] = assay: Wound healing assay; format: cell-based, human; details: 10 μM pretreatment 24 h, migration 24-48 hours
Protocol: FIG. 8: E-cadherin-enhancing drug promote collective migration of intestinal epithelial cells. Confluent T84 cell monolayers were pretreated with either vehicle, ECU (10 μM) or ML327 (10 μM) for 24 hours. Afterwards, cell monolayers were wounded and allowed to migrate into wound area in the presence of the drugs. Cell monolayers were photographed and wound closure was calculated at the indicated times. Data is presented as mean ±SE (n=3); **P<0.05, ***P<0.01.
Confluent epithelial cell monolayers were mechanically wounded by making a thin scratch wound with a 200 μl pipette tip. The bottom of the well was marked to define the position of the wound and the monolayers were supplied with fresh cell culture medium. The images of a cell-free area at the marked region were acquired at the indicated times after wounding using an inverted bright field microscope equipped with a camera. The percentage of wound closure was calculated using an Image J software (NIH, Bethesda, Md.).
Finally, the effects of E-cadherin-enhancing drugs on epithelial restitution (wound healing) were examined. This is an important question given the fact that epithelial wounds are frequently formed in inflamed intestinal mucosa of IBD patients and wound healing is necessary to restore the integrity of the gut barrier and to achieve remission of chronic inflammatory diseases. […]

T84 cell monolayers [2] = assay: Cytokine (TNFα/IFNγ)-induced disruption of the epithelial barrier (TEER, FITC-dextran flux); format: cell-based, human; details: 10 μM pretreatment 24 h, then TNFα 10 ng/ml + IFNγ 50 ng/ml, 48 h
Protocol: Confluent T84 cell monolayers were pretreated with either vehicle, or ECU (10 μM) for 24 h. Afterwards, cells were exposed to a combination of TNFα (10 ng/ml) and IFNγ (50 ng/ml) with and without ECU. (A) TEER was measured at the indicated times. (B) FITC-dextran flux was examined after 48 h incubation with cytokines. Data is presented as mean ±SE (n=3); ***P<0.001.
Confluent T84 cell monolayers were pretreated with either vehicle, or ML327 (10 μM) for 24 hours. Afterwards, cells were exposed to a combination of TNFα (10 ng/ml) and IFNγ (50 ng/ml) with and without ML327. (A) TEER was measured at the indicated times. (B) FITC-dextran flux was examined after 48 h incubation with cytokines. Data is presented as mean ±SE (n=3); **P<0.05, ***P<0.001.
(§1) Transepithelial electrical resistance (TEER) of cultured T84, HT-29 and SK-C015 intestinal epithelial cell monolayers was measured using an EVOMX voltohmmeter (World Precision Instruments, Sarasota, Fla.). Cells were plated on collagen-coated transwell filters (pore size 3 μm, Thermo-Fisher). The resistance of cell-free collagen-coated filters was subtracted from each experimental point. An in vitro dextran flux assay was performed by a following commonly-used protocol. Intestinal epithelial cell monolayers growing on transwell filters were apically exposed to 1 mg/ml of FITC-labeled dextran (4,000 Da) in HEPES-buffered Hanks balanced salt solution (HBSS). After 120 min of incubation, HBSS samples were collected from the lower chamber, and FITC fluorescence intensity was measured using a Victor^3 V plate reader (Perkin Elmer, Waltham, Mass.) with excitation and emission wavelengths 485 and 544 nm, respectively. After subtracting the fluorescence of dextran-free HBSS the amount of FITC dextran translocated across the epithelial cell monolayer was calculated based on a calibration curve using Prism 5 software (GraphPad, La Jolla, Calif.).
A combination of two cytokines were selected: tumor necrosis factor alpha (TNFα, 10 ng/ml) and interferon-gamma (IFNγ, 50 ng/ml), which are known to compromise barrier integrity and trigger apical junction disassembly in cultured epithelial cell monolayers and intestinal mucosa in mice. Indeed, 48 hour incubation of well-differentiated T84 cell monolayers with TNFα and IFNγ caused a dramatic decrease in TEER (FIGS. 3A, 4A) and increase in transepithelial dextran flux (FIGS. 3B, 4B), which indicates the increase in barrier permeability. […] Next, it was examined if ECU protects epithelial adherens junctions (AJ) and tight junctions (TJ) from cytokine-induced disassembly. Immunofluorescence labeling of a specific AJ marker, E-cadherin, and a TJ marker, ZO-1, was used to visualize structure of different junctional complexes. […]

T84 cell monolayers [3] = assay: Immunoblotting of signaling molecules after multiple wounding; format: cell-based, human; details: 10 μM pretreatment 24 h; lysates 12 and 24 h post-wounding
Protocol: Confluent T84 cell monolayers were pretreated with either vehicle, ECU (10 μM), or ML327 (10 μM), for 24 h, and were subjected to multiple wounding. Total cell lysates were collected at 12 and 24 h post-wounding, and the expression of different signaling molecules was determined by immunoblotting. Representative immunoblots (A) and densitometric quantification of protein band intensities from three independent experiments (B) are shown. Data are presented as a mean ±SE (n=3); *p<0.05; **p<0.01.
To prepare total cell lysates, epithelial cell monolayers were scraped and homogenized using a Dounce homogenizer in RIPA buffer (20 mM Tris, 50 mM NaCl, 2 mM EDTA, 2 mM EGTA, 1% sodium deoxycholate, 1% Triton X-100 (TX-100), and 0.1% SDS, pH 7.4) containing protease inhibitor cocktail and phosphatase inhibitor cocktails 2 and 3 (Sigma-Aldrich). The obtained total cell lysates were cleared by centrifugation (20 min at 14,000×g), diluted with 2×SDS sample loading buffer and boiled. SDS-polyacrylamide gel electrophoresis was conducted using a standard protocol with equal amounts of total protein (10 or 20 μg) loaded per each lane. The separated proteins were transferred to nitrocellulose membranes and the membranes were blocked with 5% non-fat milk. […]

T84 cell monolayers [4] = assay: Epithelial barrier permeability in vitro (TEER, FITC-dextran flux), steady state; format: cell-based, human; details: 10 μM
Protocol: (§2) FIG. 1: E-cadherin-enhancing drugs decrease ionic permeability of model colonic epithelial cell monolayers. Confluent T84 (A), HT-29cF8 (B) and SK-0015 (C) cell monolayers were treated for indicated times with either vehicle, E-cadherin upregulator (ECU, 10 μM), or ML327 (10 μM). Transepithelial electrical resistance (TEER) of the cell monolayers was measured before and during the drug treatment. Data is presented as mean ±SE (n=3); *P<0.05.
(§3) FIG. 2: E-cadherin-enhancing drugs decrease colonic epithelial permeability to large molecules. Confluent T84 (A), HT-29cF8 (B) and SK-C015 (C) cell monolayers were treated with either vehicle, ECU, or ML327, as described in the FIG. 1 legend. Trans-monolayer flux of FITC-dextran was determined at the end of the drug treatment. Data is presented as mean ±SE (n=3); **P<0.05 ***P<0.01.
as §1
(§4) One set of experiments examined the effects of E-cadherin upregulator (ECU) and ML327 on the barrier properties of normal model intestinal epithelial cell monolayers. Three different human colonic epithelial cell lines, namely, T84, SK-0015 and HT-29 cF8 cells, were used. Cells were plated on collagen-coated transwell filters and allowed to reach confluency and differentiate for 5-7 days after plating. Thereafter, cell monolayers were exposed to either ECU (10 μM), ML327 (10 μM) or vehicle (DMSO). Transepithelial electrical resistance (TEER) was measured before and at different times after addition of E-cadherin-enhancing drugs. A transepithelial flux of FITC-dextran was examined at the end of the drug exposure to evaluate epithelial permeability to large uncharged molecules.

SK-0015 cell monolayers = assay: as above; format: cell-based, human; details: 10 μM
Protocol: as §2, §3, §1, §4

[5] = system: HT-29 cF8 cell monolayers; assay: as above; format: cell-based, human; details: 10 μM
Protocol: as §2, §3, §1, §4

[6] = rapid (within 24 h) and sustained (up to 96 h), vs vehicle (DMSO)
[7] = at the end of the drug exposure

Structure (SMILES): Nc1ncn([C@@H]2O[C@H](CO)[C@@H](O)[C@H]2O)c(=O)n1 [5-Axacytidine]
- E-cadherin expression (E-cadherin): stimulate E-cadherin expression

Structure (SMILES): CN(C)C(=S)NN=C(c1ccccn1)c1ccccn1 [Dp44mT, Di(2-pyridyl)ketone 4,4-dimethyl-3-thiosemicarbazone]
- E-cadherin expression (E-cadherin): stimulate E-cadherin expression

Structure (SMILES): CN(C(=S)NN=C(c1ccccn1)c1ccccn1)C1CCCCC1 [DpC, di(2-pyridyl)ketone 4-cyclohexyl-4-methyl-3-thiosemicarbazone]
- E-cadherin expression (E-cadherin): stimulate E-cadherin expression

Structure (SMILES): O=C(NCCCNC(=O)c1cccnc1O)c1cc(-c2ccccc2)on1 [ML327, N-(3-(2-hydroxynicotinamido)propyl)-5-phenylisoxazole-3-carboxamide]
- Cell migration during wound healing (wound closure) (T84 cell monolayers [1]): significantly increased migration
- Cytokine-induced decrease in TEER (T84 cell monolayers [2]): prevents cytokine-induced disruption; also recorded: markedly attenuated
- Cytokine-induced increase in transepithelial FITC-dextran flux (T84 cell monolayers [2]): prevents cytokine-induced disruption; also recorded: markedly attenuated
- Expression of signaling molecules (pro-migratory signaling) (T84 cell monolayers [3]): activation of pro-migratory signaling events
- Transepithelial flux of FITC-dextran (T84 cell monolayers [4]; at the end of the drug exposure, T84): significantly inhibited FITC-dextran flux
- Transepithelial electrical resistance (TEER) (T84 cell monolayers [4]; [6]): increase in TEER
- Transepithelial flux of FITC-dextran (SK-0015 cell monolayers; [7]): significantly inhibited FITC-dextran flux
- Transepithelial electrical resistance (TEER) (SK-0015 cell monolayers; [6]): increase in TEER
- Transepithelial flux of FITC-dextran [5, 7]: significantly inhibited FITC-dextran flux
- Transepithelial electrical resistance (TEER) ([5]; up to 96 h, vs vehicle (DMSO)): transiently increased TEER for the first 48 hours with its subsequent decrease at later times

Structure (SMILES): CCCCCCCCCCCCC/C=C/[C@@H](O)[C@@H](N)COP(=O)(O)O [Sphingosine-1-Phosphate]
- E-cadherin expression (E-cadherin): stimulate E-cadherin expression

Structure (SMILES): CN(Cc1cnc2nc(N)nc(N)c2n1)c1ccc(C(=O)N[C@@H](CCC(=O)O)C(=O)O)cc1 [methotrexate]
- E-cadherin expression (E-cadherin): stimulated E-cadherin expression
